This assay addresses T1, HEK cells stably transfected with tetracycline inducible hNR1 and hNR2A (Homo sapiens, UniProt Q05586+Q12879).
T1 construct: expressed in transfected cells; host or cells: HEK cells, stably transfected, tetracycline/doxycycline inducible
In words: Assay 1: Cell-Based Assay, cytosolic calcium response to positive allosteric modulators (with 30 μM glycine and 300 nM L-glutamate, EC30). As to conditions: for EC50: cytosolic calcium response, with 30 μM glycine and 300 nM L-glutamate (EC30), — = no plateau was reached; for Max %: responses scaled relative to 100 μM L-glutamate maximal response (100%) and 0 μM L-glutamate (0%). In short, it runs like this: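 Cells induced 24 h with 7.5 μg mL^−1 doxycycline plus 500 μM (+)-ketamine, loaded 60 min at 37 °C with calcium dye in Mg-free HBSS (1.8 mM Ca, probenecid, 10 μM (+)-ketamine, pH 7.15). Peak RFU over 5 min after compound addition, scaled to 100 μM L-glutamate (100%) and 0 μM (0%); four-parameter Hill fit for EC50, max % if no plateau.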

T1 sequence (Q12879 23-1464, other chains not shown): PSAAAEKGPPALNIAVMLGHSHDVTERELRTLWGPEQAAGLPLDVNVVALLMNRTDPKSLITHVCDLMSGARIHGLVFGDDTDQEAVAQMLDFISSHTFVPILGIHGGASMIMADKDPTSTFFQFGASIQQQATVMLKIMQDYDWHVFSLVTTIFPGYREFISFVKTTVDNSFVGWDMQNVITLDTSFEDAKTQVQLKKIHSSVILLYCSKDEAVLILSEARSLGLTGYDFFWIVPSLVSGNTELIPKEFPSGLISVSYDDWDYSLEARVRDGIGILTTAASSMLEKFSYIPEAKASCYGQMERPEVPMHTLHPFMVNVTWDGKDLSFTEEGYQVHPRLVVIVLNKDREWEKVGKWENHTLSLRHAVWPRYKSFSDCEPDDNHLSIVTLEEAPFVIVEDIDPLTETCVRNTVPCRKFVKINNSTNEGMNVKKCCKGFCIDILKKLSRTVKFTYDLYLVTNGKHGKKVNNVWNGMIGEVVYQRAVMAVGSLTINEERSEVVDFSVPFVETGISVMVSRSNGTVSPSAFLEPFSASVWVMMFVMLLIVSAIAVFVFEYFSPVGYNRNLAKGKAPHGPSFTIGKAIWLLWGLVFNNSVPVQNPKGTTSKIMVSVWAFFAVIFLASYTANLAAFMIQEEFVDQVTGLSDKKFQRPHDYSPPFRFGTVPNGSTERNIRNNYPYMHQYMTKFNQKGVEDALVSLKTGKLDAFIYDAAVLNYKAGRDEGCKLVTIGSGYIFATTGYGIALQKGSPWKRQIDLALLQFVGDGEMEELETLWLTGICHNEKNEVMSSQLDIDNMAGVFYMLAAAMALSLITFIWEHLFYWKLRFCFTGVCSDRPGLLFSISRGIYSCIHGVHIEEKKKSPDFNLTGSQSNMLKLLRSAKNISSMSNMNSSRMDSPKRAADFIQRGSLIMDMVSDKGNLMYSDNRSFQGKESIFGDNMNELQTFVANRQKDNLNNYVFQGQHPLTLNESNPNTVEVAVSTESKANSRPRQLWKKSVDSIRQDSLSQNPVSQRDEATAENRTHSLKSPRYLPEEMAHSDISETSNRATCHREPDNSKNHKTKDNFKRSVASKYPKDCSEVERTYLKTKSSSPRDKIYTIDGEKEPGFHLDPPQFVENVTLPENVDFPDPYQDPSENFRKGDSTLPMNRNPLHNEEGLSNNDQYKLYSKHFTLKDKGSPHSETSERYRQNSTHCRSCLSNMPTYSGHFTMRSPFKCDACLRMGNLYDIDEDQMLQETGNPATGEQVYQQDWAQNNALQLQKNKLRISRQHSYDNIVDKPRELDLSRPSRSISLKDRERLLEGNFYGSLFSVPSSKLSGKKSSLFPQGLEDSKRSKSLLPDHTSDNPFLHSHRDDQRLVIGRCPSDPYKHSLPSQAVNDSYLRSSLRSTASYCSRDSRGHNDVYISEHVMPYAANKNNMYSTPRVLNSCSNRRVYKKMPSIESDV

As to `CCN(Cc1cc(=O)n2c(-c3nc(C)cs3)c(C)sc2n1)c1ccc(F)cc1` [Example 5.49, 7-((ethyl(4-fluorophenyl)amino)methyl)-2-methyl-3-(4-methylthiazol-2-yl)-5H-thiazolo[3,2-a]pyrimidin-5-one], where the note is “Table 2”, the EC50 amounted to 12.9 µM and the Max % is recorded as 127%.
With `O=c1cc(Cn2nc(C(F)(F)F)cc2Cl)nc2sc(C(F)(F)F)c(-c3cscn3)n12` [compound 248, 7-[[5-chloro-3-(trifluoromethyl)pyrazol-1-yl]methyl]-3-thiazol-4-yl-2-(trifluoromethyl)thiazolo[3,2-a]pyrimidin-5-one], under “Table 3”, the EC50 came out at 1.45 µM.
As for `Cc1sc2nc(Cc3cccc(C#N)c3)c(F)c(=O)n2c1C1CC1CO` (stereo not drawn) [Example 20.2, 3-((6-fluoro-3-(2-(hydroxymethyl)cyclopropyl)-2-methyl-5-oxo-5H-thiazolo[3,2-a]pyrimidin-7-yl)methyl)benzonitrile], under “Table 2”, the EC50 was determined as 7.4 µM and the Max % is on record as 145%.
The like results for `CCN(Cc1cc(=O)n2c(-c3cncc(C#N)c3)c(C)sc2n1)c1ccc(F)cc1` [Example 5.35, 5-[7-[(N-ethyl-4-fluoro-anilino)methyl]-2-methyl-5-oxo-thiazolo[3,2-a]pyrimidin-3-yl]pyridine-3-carbonitrile] were, in that order, 2.7 µM and 136%.
For the compound `CCN(Cc1cc(=O)n2c(-c3cncc(OC)c3)c(C)sc2n1)c1ccc(F)cc1` [Example 5.58, 7-[(N-ethyl-4-fluoro-anilino)methyl]-3-(5-methoxy-3-pyridyl)-2-methyl-thiazolo[3,2-a]pyrimidin-5-one], where the note is “Table 2”, the EC50 was 5.1 µM and the Max % is on record as 120%.
Consider `CCNC(=O)c1c(C)sc2nc(Cn3nc(C)cc3Cl)cc(=O)n12` [compound 20, 7-[(5-chloro-3-methyl-pyrazol-1-yl)methyl]-N-ethyl-2-methyl-5-oxo-thiazolo[3,2-a]pyrimidine-3-carboxamide], for which the EC50 (Table 3) was determined as 10.2 µM.
For the compound `COc1sc2nc(Cn3nc(C(F)(F)F)cc3Cl)cc(=O)n2c1C(C)=O` [compound 244, 3-Acetyl-7-[[5-chloro-3-(trifluoromethyl)pyrazol-1-yl]methyl]-2-methoxy-thiazolo[3,2-a]pyrimidin-5-one], where the note is “Table 3”, the EC50 turned out to be 0.392 µM.
For `CCN(Cc1cc(=O)n2c3c(sc2n1)CCC3CCO)c1ccc(F)cc1` (stereo not drawn) [Example 8.14, 6-[(N-ethyl-4-fluoro-anilino)methyl]-1-(2-hydroxyethyl)-2,3-dihydro-1H-cyclopenta[3,4]thiazolo[1,4-a]pyrimidin-8-one], under “Table 2”, the EC50 amounted to 1.1 µM and the Max % is on record as 154%.
Take `Cc1sc2nc(Cn3nc(C(F)(F)F)cc3Cl)cc(=O)n2c1-c1ccn[nH]1` [compound 132]: the EC50 (Table 3) was determined as 2.04 µM.
`Cc1sc2nc(Cn3nc(C(F)(F)F)cc3C#N)cc(=O)n2c1[C@@H]1C[C@H]1CO` (relative stereo) [Example 15.19, 1-((3-(trans-2-(hydroxymethyl)cyclopropyl)-2-methyl-5-oxo-5H-thiazolo[3,2-a]pyrimidin-7-yl)methyl)-3-(trifluoromethyl)-1H-pyrazole-5-carbonitrile]: for the setting “Table 2”, the EC50 came to 0.512 µM and the Max % amounted to 126%.
Take `CCN(Cc1cc(=O)n2c(C3CC3CO)c(C)sc2n1)c1ccc(Cl)cn1` (stereo not drawn) [compound 196, 7-[[(5-chloro-2-pyridyl)-ethyl-amino]methyl]-3-[2-(hydroxymethyl)cyclopropyl]-2-methyl-thiazolo[3,2-a]pyrimidin-5-one]: the EC50 (Table 3) turned out to be 0.0642 µM.
As for `CNC(=O)Cc1c(C)sc2nc(Cn3nc(C(F)(F)F)cc3Cl)cc(=O)n12` [compound 98, 2-[7-[[5-chloro-3-(trifluoromethyl)pyrazol-1-yl]methyl]-2-methyl-5-oxo-thiazolo[3,2-a]pyrimidin-3-yl]-N-methyl-acetamide], the EC50 (Table 3) was determined as 1.57 µM.
With `CC1CC1c1c(C(F)(F)F)sc2nc(Cn3nc(Cl)cc3C(F)(F)F)cc(=O)n12` (stereo not drawn) [compound 200, 7-[[3-chloro-5-(trifluoromethyl)pyrazol-1-yl]methyl]-3-(2-methylcyclopropyl)-2-(trifluoromethyl)thiazolo[3,2-a]pyrimidin-5-one], for the setting “Table 3”, the EC50 is 3.13 µM.
In the case of `Cc1sc2nc(COc3ccc(F)cc3)cc(=O)n2c1-c1nnc[nH]1` [Example 4.16, 7-((4-fluorophenoxy)methyl)-2-methyl-3-(4H-1,2,4-triazol-3-yl)-5H-thiazolo[3,2-a]pyrimidin-5-one], for the setting “Table 2”, the Max % is 46.2%.
Turning to `CCN(Cc1cc(=O)n2c(C#N)c(C)sc2n1)c1ccccn1` [Example 7.7, 7-((ethyl(pyridin-2-yl)amino)methyl)-2-methyl-5-oxo-5H-thiazolo[3,2-a]pyrimidine-3-carbonitrile], under “Table 2”, the EC50 worked out at 21 µM and the Max % came out at 148%.
The like results for `Cc1sc2nc(COc3ccc(F)cc3)cc(=O)n2c1CCCO` [Example 4.30, 7-(4-Fluorophenoxymethyl)-3-(3-hydroxypropyl)-2-methyl-5H-[1,3]thiazolo[3,2-a]pyrimidin-5-one] were, in that order, 15.5 µM and 75.4%.
On to `CC1(C)CCc2sc3nc(Cn4nc(C(F)(F)F)cc4C4CC4)cc(=O)n3c21` [Example 27.7, 10-{[5-cyclopropyl-3-(trifluoromethyl)-1H-pyrazol-1-yl]methyl}-3,3-dimethyl-7-thia-1,9-diazatricyclo[6.4.0.0^{2,6}]dodeca-2(6),8,10-trien-12-one], for which the EC50 (Table 2) amounted to 26.5 µM.
For the compound `CCN(Cc1cc(=O)n2c(-c3ccncc3)c(C)sc2n1)c1ccc(F)cc1` [Example 5.32, 7-[(N-ethyl-4-fluoro-anilino)methyl]-2-methyl-3-(4-pyridyl)thiazolo[3,2-a]pyrimidin-5-one], under “Table 2”, the EC50 stood at 4.3 µM and the Max % was determined as 123%.
Take `CNC(=O)c1c(C(F)(F)F)sc2nc(Cc3cccc(Cl)c3F)cc(=O)n12` [compound 64, 7-[(3-chloro-2-fluoro-phenyl)methyl]-N-methyl-5-oxo-2-(trifluoromethyl)thiazolo[3,2-a]pyrimidine-3-carboxamide]: the EC50 (Table 3) came out at 12.1 µM.
Consider `CCN(Cc1cc(=O)n2c(-c3cnn(C)c3)c(C)sc2n1)c1ccc(F)cc1` [Example 5.33, 7-[(N-ethyl-4-fluoro-anilino)methyl]-2-methyl-3-(1-methylpyrazol-4-yl)thiazolo[3,2-a]pyrimidin-5-one], for which, for the setting “Table 2”, the EC50 was determined as 4.2 µM and the Max % is given as 120%.
Regarding `Cc1sc2nc(CN(C)c3ccc(Cl)cn3)cc(=O)n2c1C1CC1C#N` (stereo not drawn) [compound 190, 2-[7-[[(5-chloro-2-pyridyl)-methyl-amino]methyl]-2-methyl-5-oxo-thiazolo[3,2-a]pyrimidin-3-yl]cyclopropanecarbonitrile], under “Table 3”, the EC50 stood at 0.779 µM.
For the compound `CCN(Cc1cc(=O)n2c3c(sc2n1)CCC31CCCC1)c1ccc(F)cc1` [Example 8.6, 6-[(N-ethyl-4-fluoro-anilino)methyl]spiro[2,3-dihydrocyclopenta[3,4]thiazolo[1,4-a]pyrimidine-1,1′-cyclopentane]-8-one], the Max % (Table 2) is listed as 60.5%.
`CCCCc1c(C)sc2nc(CN(CC)c3ccc(F)cc3)cc(=O)n12` [Example 5.14, 3-butyl-7-((ethyl(4-fluorophenyl)amino)methyl)-2-methyl-5H-thiazolo[3,2-a]pyrimidin-5-one]: where the note is “Table 2”, the EC50 was 7.5 µM and the Max % came out at 111%.
The like results for `CCN(Cc1cc(=O)n2c(C(O)CCO)c(C)sc2n1)c1ccc(F)cc1` (single isomer, unassigned) [Example 12.4, 3-(1,3-dihydroxypropyl)-7-[(N-ethyl-4-fluoro-anilino)methyl]-2-methyl-thiazolo[3,2-a]pyrimidin-5-one] were, in that order, 0.591 µM and 176%.
In the case of `Cc1sc2nc(Cc3cccc(C(F)(F)F)c3F)cc(=O)n2c1C(=O)NC(C)C` [compound 106, 7-[[2-fluoro-3-(trifluoromethyl)phenyl]methyl]-N-isopropyl-2-methyl-5-oxo-thiazolo[3,2-a]pyrimidine-3-carboxamide], under “Table 3”, the EC50 came out at 3.4 µM.
In the case of `CCNC(=O)c1c(C(F)F)sc2nc(Cn3nc(C(F)(F)F)cc3Cl)cc(=O)n12` [compound 258, 7-[[5-Chloro-3-(trifluoromethyl)pyrazol-1-yl]methyl]-2-(difluoromethyl)-N-ethyl-5-oxo-thiazolo[3,2-a]pyrimidine-3-carboxamide], where the note is “Table 3”, the EC50 was determined as 0.227 µM.
As to `CCNC(=O)c1c(C(C)=O)sc2nc(Cn3nc(Cl)cc3C(F)(F)F)cc(=O)n12` [compound 238, 2-acetyl-7-[[3-chloro-5-(trifluoromethyl)pyrazol-1-yl]methyl]-N-ethyl-5-oxo-thiazolo[3,2-a]pyrimidine-3-carboxamide], the EC50 (Table 3) was determined as 2.32 µM.
In the case of `CCN(Cc1cc(=O)n2c3c(sc2n1)CCC3=O)c1ccc(F)cc1` [Example 8.7, 6-[(N-ethyl-4-fluoro-anilino)methyl]-2,3-dihydrocyclopenta[3,4]thiazolo[1,4-a]pyrimidine-1,8-dione], where the note is “Table 2”, the Max % is reported as 81.4%.
On to `O=c1cc(Cn2nc(C(F)(F)F)cc2C2CC2)nc2sc3c(n12)CCC3` [Example 27.5, 10-{[5-cyclopropyl-3-(trifluoromethyl)-1H-pyrazol-1-yl]methyl}-7-thia-1,9-diazatricyclo[6.4.0.0^{2,6}]dodeca-2(6),8,10-trien-12-one], for which the EC50 (Table 2) came to 30.4 µM.
In the case of `CCNC(=O)c1c(C(F)(F)F)sc2nc(CN(CC)c3ccc(F)cc3)cc(=O)n12` [compound 83, N-ethyl-7-[(N-ethyl-4-fluoro-anilino)methyl]-5-oxo-2-(trifluoromethyl)thiazolo[3,2-a]pyrimidine-3-carboxamide], the EC50 (Table 3) was determined as 0.154 µM.

The EC50 is the concentration giving half of the maximal effect.

The values above are taken from US9988400B2 (Genentech, Inc., priority 2013, dated 2018).
